Two compounds from patent publication US11174216B2, “Lipids that increase insulin sensitivity and methods of using the same” (Beth Israel Deaconess Medical Center, Inc., priority 2012, dated 2021) can be followed below.

One data set relates to Human islets. Nature of the data set: Insulin release from primary human islet cells. The data set is classed as cell-based. The following applies: 45 min. As for the experimental part: Two human donors provided cells used in these studies. Donor 1 was a person, 5′0″, 157 lbs, with a BMI of 30.5, HbA1C was 5.8, who died from a stroke, but it was witnessed and they had no downtime. Islets were 80% pure and 95% viable. After arrival, islets were incubated overnight in human islet media before stimulation with glucose in presence and absence of 5-PAHSA (lipid A-5). Note 1 IU of Human Insulin=6 nmol=34.8 μg Insulin.
Human islets were divided into ten groups [100 islets per condition]
A] Low glucose [2.5 mM]; B] High glucose [20.0 mM]; C] Low glucose [2.5 mM]+2.5 μL/mL Methanol; D] High glucose [20.0 mM]+2.5 μL/mL Methanol; E] Low glucose+20 μM Lipid A-5; F] High glucose+20 μM Lipid A-5; G] Low glucose+50 μM Lipid A-5; H] High glucose+50 μM Lipid A-5.
Islets were cultured overnight in Human Islet media and next day incubated with KRB buffer for 4 h prior to glucose stimulation.
Following KRB incubation, islets were stimulated with glucose [2.5 mM & 20.0 mM] in the presence and absence of Lipid A-5 [20 & 50 μM] for 45 min
At the end of glucose stimulation the amount of insulin released [μ IU/mL] into the media was measured using Human Insulin ELISA kit. And the insulin content from the islets were extracted to express insulin released into the media as μ IU/mL/islet content. […]

A further data set relates to isolated rat islets. Nature of the data set: Insulin release studies in rat islets. The data set is classed as cell-based. The following applies: 25 mM glucose in the media. Here is the method:
Ins1 cells (FIGS. 31A and 31B) or primary rat islet cells (FIG. 32A and FIG. 32B) were seeded in 24 well-plates [˜10^6 cells/well]. At confluence, cells were incubated with Low Serum [2.5%] and Low Glucose [2.5 mM] media for 12 hours. Next, cells were incubated with KRB buffer for 1 h and stimulated with glucose in the presence of 5-PAHSA (FIGS. 31a and 31B) or 9-PAHSA (FIG. 31B) for 45 min in KRB. At the end of the stimulation, 100 μL of media was collected and 10 μL was used to quantitate the amount of insulin released by ELISA. Treatment Conditions for FIGS. 31A, 31B and 32B were: • 5-PAHSA or 9-PAHSA [Stock]=20.0 mM [10.76 mg/mL Methanol] • A] 1 uM=0.3 uL/6 mL [Amount of methanol/mL=0.05 uL] • B] 5 uM=1.5 uL/6 mL [Amount of methanol/mL=0.25 uL] • C] 10 uM=3.0 uL/6 mL [Amount of methanol/mL=0.50 uL] • D] 20 uM=6.0 uL/6 mL [Amount of methanol/mL=1.00 uL] […]
Isolated rat islets were cultured overnight in RPMI 1640 medium containing 2.5 mM glucose and 2.5% fetal bovine serum supplemented with 100 IU/ml penicillin and 100 IU/ml streptomycin, 1 mM sodium pyruvate, and 10 mM HEPES (pH 7.4). […] At the end of the stimulation supernatant was collected and insulin released into the medium was quantified by ELISA as per manufacturer's protocol. The islets were lysed and protein content was measured and the amount of insulin released into the media was quantitated as ng/mL/μg of protein.

In data set [1] the test system is carboxyl ester lipase (CEL).
The subject of data set [2] is FAHFA hydrolysis activity in liver lysate.

With `CCCCCCCCCCCCCCCC(=O)OC(CCCCCCCCCCCCC)CCCC(=O)O` (centres unmarked) [5-PAHSA], the “Glucose Stimulated Insulin Secretion” value in the data set with Human islets (human islets from Donor 1, 20 and 50 uM) is on record as “induces Glucose Stimulated Insulin Secretion”; in the data set with Human islets (human islets from Donor 2, 20 uM), “induces Glucose Stimulated Insulin Secretion”. The glucose-stimulated insulin secretion entry in the data set with isolated rat islets is reported as “potentiates glucose-stimulated insulin secretion”.

With `CCCCCCCCCCCCCCCC(=O)OC(CCCCCCCCC)CCCCCCCC(=O)O` (centres unmarked) [9-PAHSA, palmitoyl-9-hydroxystearic acid], the “hydrolysis by HEK293T lysates transfected with CEL, AADACL1 or CES3” value in data set [1] was “only CEL-transfected cell lysate was able to hydrolyze FAHFA above the level of background hydrolysis activity”. The “hydrolysis of 9-PAHSA to 9-HSA” value in data set [2] was “Substantial 9-HSA production”.
